Key:
patients with BPH [1] = experiment: 48-week atamestane treatment (100 mg, 300 mg vs placebo), testosterone serum concentration; assay type: in vivo, human; settings: for Testosterone Serum Concentration Δ % (X ± SD): 48 weeks
Description: (§1) Tables 3 and 4 show the results after a 48-week treatment.

patients with BPH [2] = experiment: 48-week atamestane treatment (400 mg vs placebo), testosterone serum concentration; assay type: in vivo, human; settings: daily dose 400 mg
Description: as §1

patients with BPH [3] = experiment: 24-week four-way study of atamestane versus placebo, testosterone serum concentration; assay type: in vivo, human; settings: for Testosterone Serum Concentration Δ % (median ± SD): 24 weeks
[4] = tested on: men with BPH (average age above 60 years); experiment: Testosterone/estradiol (T/E2) ratio before and after atamestane, 4 clinical studies, 7 treatment groups; assay type: in vivo, human
Protocol: Gradual lowering of the estrogen concentration induces a counterregulatory stimulation of androgen synthesis. To a certain extent, there is an endogenic testosterone substitution, by which the androgen/estrogen balance is again brought back to the “youthful” range. This substantiates the results of the longer-term treatment of older men (average age above 60 years) with the selective aromatase inhibitor atamestane.
(§2) In several clinical studies, atamestane was administered at varying dosages and over periods of up to 48 weeks to men in this age group to treat an existing BPH. […] Table 5 provides the testosterone/estrogen ratio before and after the administration of atamestane for patient populations from 4 studies and 7 treatment groups.
Assuming that the testosterone dominance that was reduced by 30-50% in the age group of patients over 60 years compared to the younger years (relative androgen deficiency) caused the symptoms of “male menopause,” the goal is thus to restore the original “balance of power” between androgens and estrogens by administering a preferably selective aromatase inhibitor by stimulating endogenic testosterone substitution without the necessity of supplying androgens exogenically. Based on the understanding that the ratio prevailing in age is the result of a 30-50% reduction compared to the youthful values, i.e., is always 50-70% of the previous value, the corresponding “youthful” previous value can be calculated for each individual patient. A patient with a testosterone/estradiol ratio of 230:1 must accordingly be adjusted to a new balance in the range between […] to 460:1, so that a preceding 30 or 50% reduction is compensated for.

patients with BPH [5] = experiment: Longer-term clinical studies with atamestane in BPH patients, hormone levels; assay type: in vivo, human
Protocol: as §2
The administration of atamestane consistently results in a resetting of the testosterone/estradiol balance in favor of the androgenic component. This action was detectable over the entire observation period up to a maximum of 48 weeks of treatment.

[6] = tested on: patients with prostate cancer; settings: pharmacological doses; cited from earlier work

CC1=CC(=O)C=C2CC[C@@H]3[C@H](CC[C@]4(C)C(=O)CC[C@@H]34)[C@@]12C [atamestane, 1-Methyl-androsta-1,4-diene-3,17-dione]
Testosterone Serum Concentration Δ % (X ± SD) (patients with BPH [1]; daily dose 100 mg): 19.0 ± 36.8%
Testosterone Serum Concentration After 48 Weeks (patients with BPH [1]; daily dose 100 mg, previous value 5.1): 5.9 ng/mL
Testosterone Serum Concentration Δ % (X ± SD) (patients with BPH [1]; daily dose 300 mg): 41.7 ± 46.4%
Testosterone Serum Concentration After 48 Weeks (patients with BPH [1]; daily dose 300 mg, previous value 4.7): 6.6 ng/mL
Testosterone Serum Concentration Δ % (X ± SD) (patients with BPH [2]; 48 weeks): 42.9 ± 53.5%
Testosterone Serum Concentration After 48 Weeks (patients with BPH [2]; previous value 4.2): 5.4 ng/mL
Testosterone Serum Concentration Δ % (median ± SD) (patients with BPH [3]; daily dose 100 mg): 29.57 ± 34.70%
Testosterone Serum Concentration After 24 Weeks (patients with BPH [3]; daily dose 100 mg, previous value 4.41): 5.57 ng/mL
Testosterone Serum Concentration Δ % (median ± SD) (patients with BPH [3]; daily dose 300 mg): 40.88 ± 156.12%
Testosterone Serum Concentration After 24 Weeks (patients with BPH [3]; daily dose 300 mg, previous value 4.50): 6.15 ng/mL
Testosterone Serum Concentration Δ % (median ± SD) (patients with BPH [3]; daily dose 600 mg): 41.19 ± 37.62%
Testosterone Serum Concentration After 24 Weeks (patients with BPH [3]; daily dose 600 mg, previous value 3.78): 5.40 ng/mL
T/E2 Ratio % Δ ([4]; 100 mg, 24 weeks): +48%
T/E2 Ratio % Δ ([4]; 100 mg, 48 weeks): +41%
T/E2 Ratio % Δ ([4]; 200 mg t.i.d., 8 weeks): +46%
T/E2 Ratio % Δ ([4]; 300 mg, 24 weeks): +58%
T/E2 Ratio % Δ ([4]; 300 mg, 48 weeks): +46%
T/E2 Ratio % Δ ([4]; 400 mg, 48 weeks): +54%
T/E2 Ratio % Δ ([4]; 600 mg, 24 weeks): +61%
achieved T/E2 versus calculated "youthful" target range ([4]; daily dose of 100 mg): target range is generally readily met
achieved T/E2 versus calculated "youthful" target range ([4]; higher dosages (above 100 mg daily)): somewhat above the target range
alteration of the testosterone/estradiol ratio ([4]; varying dosages, periods of up to 48 weeks): significant alteration of the testosterone/estradiol ratio in favor of testosterone
peripheral estrogen reduction (patients with BPH [5]; daily doses of 100 mg-600 mg): equally intense
testosterone concentration after longer-term treatment (patients with BPH [5]; treatment lasting 24 to 48 weeks, patients with BPH): significant increase

CC/C(=C(/CC)c1ccc(O)cc1)c1ccc(O)cc1 [diethylstilbestrol]
testosterone level in the serum [6]: castration level

Source: patent US6696432B1, “Combination of dehydroepiandrosterone and aromatase inhibitors and use of this combination to produce a medicament for treating relative and absolute androgen deficiency in men” (Schering Aktiengesellschaft, priority 1996, dated 2004)
